From patent US20080194614A1, “Combination of Organic Compounds” (priority 2005, published 2008)

Legend:
[1] = 4-week toxicity study in rats; assay type: in vivo
Protocol: (§1) Rapamycin or derivatives thereof are well tolerated at dosages required for use in accordance with the present invention. For example, the NTEL for Compound A in a 4-week toxicity study is 0.5 mg/kg/day in rats and 1.5 mg/kg/day in monkeys.

[2] = 4-week toxicity study in monkeys; assay type: in vivo
Protocol: as §1

## CO[C@H]1C[C@@H]2CC[C@@H](C)[C@@](O)(O2)C(=O)C(=O)N2CCCC[C@H]2C(=O)O[C@H]([C@H](C)C[C@@H]2CC[C@@H](OCCO)[C@H](OC)C2)CC(=O)[C@H](C)/C=C(\C)[C@@H](O)[C@@H](OC)C(=O)[C@H](C)C[C@H](C)/C=C/C=C/C=C/1C [Compound A, 40-0-(2-hydroxyethyl)-rapamycin]
[1]
  NTEL: 0.5 mg/kg/day
[2]
  NTEL: 1.5 mg/kg/day
